Assay results as given in patent publication US20180251431A1 (VERTEX PHARMACEUTICALS INCORPORATED, priority 2016, published 2018).

System: HEK293 cells
Assay: HEK293 VLCFA-LPC IC50 determination (13C-labeled C26:0 LPC by UHPLC/MS)
Type: cell-based, human
Conditions: Homo sapiens, HEK293, 48 h, average of one or more replicates; 13C-labeled C26:0 LPC, 48 hours; read-out: Average HEK293 IC50
Procedure: HEK293 cells were treated with compounds, such as those listed in Tables A-E of Example 1, using the representative manual protocols described below. The protocols below were also adapted to a semi-automated protocol using standard methods in the art.
Cell Culture Growth Conditions:
HEK293 cells were maintained in FreeStyle F17 media (Gibco # A13835) supplemented with PenStrep (1%, Gibco #15070-063), Glutamax (2%, Gibco #35050-061), and Pluronic (0.1%, Gibco #24040-032) (“supplemented media”). Suspension cultures were grown in disposable Erlenmeyer flasks at about 120 rpm, 37° C., 5% CO2, and 80% humidity. Cell densities were kept between about 0.5 and 3 million cells per mL, in about 50-200 mL per flask.
Treatment of Cells with Compounds Provided Herein:
The cells were treated with compounds using either a total of 900 uL cell media volume (high-volume assay) or a total of 200 uL cell media volume (low-volume assay). In the high volume assay, 450 μL of supplemented media plus 13C-acetate (1.0 mg/mL, Sigma Aldrich #282014) were added to 0.5 μL of a compound (such as those in Tables A-E) in DMSO in a polypropylene v-bottom plate (Costar #3363) in 1 of 3 dilution schemes. The contents of each well were mixed and transferred to a sterile polypropylene deep-well v-bottom plate (Costar #3960). 450 μL of cultured HEK293 cells in supplemented media at a density of 1.0 million cells/mL was added to each well. In the low volume assay, 100 μL of supplemented media plus 13C-acetate (1.0 mg/mL, Sigma Aldrich #282014) were added to either 0.1 μL or 1.0 uL of a compound (such as those in Tables A-E) in DMSO in a polypropylene v-bottom plate (Costar #3363) in 1 of 3 dilution schemes. 100 μL of cultured HEK293 cells in supplemented media at a density of 1.0 million cells/mL was added to each well. The high volume and low volume plates were sealed with either AirPore Tape Sheets (Qiagen #19571) or Duetz plate covers to control evaporation and placed into a shaking incubator at 225 rpm, 37° C., 5% CO2, and 80% humidity for 48 hours. For both the high and low volume assays the 3 dilution schemes used were as follows:
Following incubation, treated cells were harvested by centrifugation at 1690×g for 10 minutes. In the high volume assay 200 uL treated cells were transferred to a polypropylene v-bottom plate (Costar #3363) prior to centrifugation. In the low volume assay the incubation plate was centrifuged directly, without a transfer step. The supernatant was then discarded and the analytes were extracted using 1 of 2 different extraction schemes. In the first scheme, the cell pellet was visibly broken up by mixing the cell pellet up and down in 100 μL of hexane/isopropanol (60:40) 20 times. The resulting mixture was transferred to a 0.45 μm Durapore membrane (Millipore #MSH VN4510) atop a polypropylene v-bottom plate (Costar #3363) and filtered by centrifugation at 1690×g for 5 minutes. 120 μL of n-butanol containing 10 nM C13:0 lysophosphatidylcholine was added to the filtrate as an injection control standard, then the entire volume was transferred to a new Durapore membrane/v-bottom plate. In the second scheme, the cell pellet was visibly broken up by mixing the cell pellet up and down in 180 μL of methanol containing 10 nM C13:0 lysophosphatidylcholine 20 times. The resulting mixture was transferred to a 0.45 μm Durapore membrane (Millipore #MSH VN4510) atop a polypropylene v-bottom plate and filtered by centrifugation at 1690×g for 5 minutes. In both schemes, the plates were then sealed with pierceable capmats (Micronic MP53017) and stored at −20 OC until analyzed.
UHPLC/Mass Spectrometry Readout:
The filtered organic extraction was analyzed with a 1290 Agilent Infinity Series UHPLC coupled to an ABI Sciex QTrap 6500 mass spectrometer. […]

Compound | IC50 [nM]
O=C(Nc1ccn(-c2ccsn2)n1)C1(c2ccccc2F)CC1 [Compound 402, 1-(2-fluorophenyl)-N-(1-isothiazol-3-ylpyrazol-3-yl)cyclopropanecarboxamide] | 60
O=C(Nc1ccn(-c2ncco2)n1)C1(c2ccccc2F)CC1 [Compound 375, 1-(2-fluorophenyl)-N-(1-oxazol-2-ylpyrazol-3-yl)cyclopropanecarboxamide] | 500
Cc1nn(C)cc1-n1ccc(NC(=O)C2(c3ccccc3F)CC2)n1 [Compound 403, N-[1-(1,3-dimethylpyrazol-4-yl)pyrazol-3-yl]-1-(2-fluorophenyl)cyclopropanecarboxamide] | > 5000
CN(C(=O)C1(c2ccccc2F)CC1)c1ccn(-c2ccnc(F)c2)n1 [Compound 363, 1-(2-fluorophenyl)-N-(1-(2-fluoropyridin-4-yl)-1H-pyrazol-3-yl)-N-methylcyclopropane-1-carboxamide] | > 5000
COc1ccc(-n2ccc(NC(=O)C3(c4ccccc4F)CC3)n2)cn1 [Compound 319, 1-(2-fluorophenyl)-N-(1-(6-methoxypyridin-3-yl)-1H-pyrazol-3-yl)cyclopropane-1-carboxamide] | 58
Cc1cncc(-n2ccc(NC(=O)C3(c4ccccc4F)CC3)n2)c1 [Compound 323, 1-(2-fluorophenyl)-N-[1-(5-methyl-3-pyridyl)pyrazol-3-yl]cyclopropanecarboxamide] | 350
O=C(Nc1ccn(-c2ccc(F)nc2)n1)C1(c2ccccc2F)CC1 [Compound 377, 1-(2-fluorophenyl)-N-[1-(6-fluoro-3-pyridyl)pyrazol-3-yl]cyclopropanecarboxamide] | 23
Cc1ccccc1C1(C(=O)Nc2ccn(-c3ccncc3)n2)CC1 [Compound 373, 1-(o-tolyl)-N-[1-(4-pyridyl)pyrazol-3-yl]cyclopropanecarboxamide] | 140

Same assay, conditions: Homo sapiens, HEK293, HEK293 cells; average of one or more replicates; read-out: Average HEK293 IC50

Compound | IC50 [nM]
O=C(Cn1nccn1)Nc1ccn(-c2ccnc(F)c2)n1 [Compound 299, N-[1-(2-fluoro-4-pyridyl)pyrazol-3-yl]-2-(triazol-2-yl)acetamide] | 5000
Cc1cc(NC(=O)C2(c3ncccc3F)CC2)nn1-c1ccc(F)cc1F [Compound 451, N-[1-(2,4-difluorophenyl)-5-methyl-pyrazol-3-yl]-1-(3-fluoro-2-pyridyl)cyclopropanecarboxamide] | 2400
O=C(Cc1ccon1)Nc1ccn(-c2ccccc2)n1 [Compound 306, 2-isoxazol-3-yl-N-(1-phenylpyrazol-3-yl)acetamide] | > 2000
COc1ccc(CC(=O)Nc2ccn(-c3ccccc3)n2)cc1 [Compound 45, 2-(4-methoxyphenyl)-N-(1-phenylpyrazol-3-yl)acetamide] | > 5000
O=C(Nc1ccn(-c2ccccc2)n1)C1(c2cc(Cl)ccc2F)CC1 [Compound 265, 1-(5-chloro-2-fluoro-phenyl)-N-(1-phenylpyrazol-3-yl)cyclopropanecarboxamide] | 240
O=C(Nc1ccn(-c2ccc(F)cc2)n1)C1(c2cccs2)CC1 [Compound 481, N-[1-(4-fluorophenyl)pyrazol-3-yl]-1-(2-thienyl)cyclopropanecarboxamide] | 160
O=C(Nc1ccn(-c2ccnc(F)c2)n1)C1(c2ccccc2)CCOCC1 [Compound 174, N-[1-(2-fluoro-4-pyridyl)pyrazol-3-yl]-4-phenyl-tetrahydropyran-4-carboxamide] | > 5000
O=C(Nc1ccn(-c2ccc(F)c(F)c2)n1)C1(c2cccs2)CC1 [Compound 479, N-[1-(3,4-difluorophenyl)pyrazol-3-yl]-1-(2-thienyl)cyclopropanecarboxamide] | 190
O=C(Cc1ccccc1C(F)(F)F)Nc1ccn(-c2ccccc2)n1 [Compound 52, N-(1-phenylpyrazol-3-yl)-2-[2-(trifluoromethyl)phenyl]acetamide] | 1100
COc1cnccc1-n1ccc(NC(=O)C2(c3ccccc3F)CC2)n1 [Compound 411, 1-(2-fluorophenyl)-N-[1-(3-methoxy-4-pyridyl)pyrazol-3-yl]cyclopropanecarboxamide] | > 5000
O=C(Nc1ccn(-c2ccccc2F)n1)C1(c2ccccc2)CC1 [Compound 188, N-[1-(2-fluorophenyl)pyrazol-3-yl]-1-phenyl-cyclopropanecarboxamide] | 140
O=C(Nc1ccn(-c2cncc(F)c2)n1)C1(c2ccccc2)CC1(F)F (racemic) [Compound 420, 2,2-difluoro-N-(1-(5-fluoropyridin-3-yl)-1H-pyrazol-3-yl)-1-phenylcyclopropane-1-carboxamide] | 100
O=C(Cc1ccccc1)Nc1ccn(-c2ccc(F)c(F)c2)n1 [Compound 189, N-[1-(3,4-difluorophenyl)pyrazol-3-yl]-2-phenyl-acetamide] | 230
O=C(Nc1ccn(-c2ccnc(F)c2)n1)[C@@]1(c2ccccc2)CC12CCCC2 [Compound 150, (2S)-N-[1-(2-fluoro-4-pyridyl)pyrazol-3-yl]-2-phenyl-spiro[2.4]heptane-2-carboxamide] | < 50
O=C(Nc1ccn(-c2ccnc(F)c2)n1)C1(c2cccc(F)c2F)CC1 [Compound 268, 1-(2,3-difluorophenyl)-N-[1-(2-fluoro-4-pyridyl)pyrazol-3-yl]cyclopropanecarboxamide] | 140
O=C(Nc1ccn(-c2cncc(F)c2)n1)C1(c2ccc(F)cn2)CC1 [Compound 466, 1-(5-fluoro-2-pyridyl)-N-[1-(5-fluoro-3-pyridyl)pyrazol-3-yl]cyclopropanecarboxamide] | 560
N#Cc1ccccc1C1(C(=O)Nc2ccn(-c3ccnc(F)c3)n2)CC1 [Compound 247, 1-(2-cyanophenyl)-N-[1-(2-fluoro-4-pyridyl)pyrazol-3-yl]cyclopropanecarboxamide] | 2500
O=C(Nc1ccn(-c2ccc(F)cc2)n1)C1(c2ccccc2F)CC1 [Compound 182, 1-(2-fluorophenyl)-N-[1-(4-fluorophenyl)pyrazol-3-yl]cyclopropanecarboxamide] | 74
Cn1ccc(-n2ccc(NC(=O)Cc3ccccc3F)n2)n1 [Compound 230, 2-(2-fluorophenyl)-N-[1-(1-methylpyrazol-3-yl)pyrazol-3-yl]acetamide] | > 5000
O=C(Nc1ccn(-c2cncc(F)c2)n1)C1(c2ncccc2F)CC12CC2 (racemic) [Compound 473, 1-(3-fluoropyridin-2-yl)-N-(1-(5-fluoropyridin-3-yl)-1H-pyrazol-3-yl)spiro[2.2]pentane-1-carboxamide] | 430
O=C(Nc1ccn(-c2cccc(F)c2)n1)C1(c2ccccc2)CC1 [Compound 125, N-[1-(3-fluorophenyl)pyrazol-3-yl]-1-phenyl-cyclopropanecarboxamide] | 71
O=C(Cc1ccccc1F)Nc1ccn(-c2ccc(C(F)(F)F)cc2)n1 [Compound 155, 2-(2-fluorophenyl)-N-[1-[4-(trifluoromethyl)phenyl]pyrazol-3-yl]acetamide] | > 5000
O=C(Cc1cccnc1)Nc1ccn(-c2ccccc2)n1 [Compound 39, N-(1-phenylpyrazol-3-yl)-2-(3-pyridyl)acetamide] | > 5000
Cc1ccccc1C1(C(=O)Nc2ccn(-c3ccccc3)n2)CC1 [Compound 12, 1-(o-tolyl)-N-(1-phenylpyrazol-3-yl)cyclopropanecarboxamide] | 130
O=C(Nc1ccn(-c2cc(F)cc(F)c2)n1)C1(c2cnccn2)CC1 [Compound 493, N-[1-(3,5-difluorophenyl)pyrazol-3-yl]-1-pyrazin-2-yl-cyclopropanecarboxamide] | > 5000
